Measurements as given in patent US12599136B2, “Substituted isophthalic acid diamides and their use as herbicides” (Bayer Aktiengesellschaft, priority 2020, dated 2026).

Experiments:
Format in all cases: in vivo
[1] = test system: Viola tricolor; assay: Post-emergence herbicidal action against VIOTR
Summary of the method: (§1)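 Spray, one-leaf stage: WP or EC compound in water, 600–800 l/ha, 0.2% wetting agent. Plants held about 3 weeks in the greenhouse, then visually rated in percent of kill compared with untreated controls.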

[2] = test system: Amaranthus retroflexus; assay: Post-emergence herbicidal action against AMARE; details: visual assessment about 3 weeks after treatment
Summary of the method: as §1

[3] = test system: Alopecurus myosuroides; assay: Post-emergence herbicidal action against ALOMY
Summary of the method: as §1

[4] = test system: Digitaria sanguinalis; assay: Post-emergence herbicidal action against DIGSA
Summary of the method: as §1

[5] = test system: Avena fatua; assay: Post-emergence herbicidal action against AVEFA; details: visual assessment about 3 weeks after treatment
Summary of the method: as §1

[6] = test system: Matricaria inodora; assay: Post-emergence herbicidal action against MATIN; details: visual assessment about 3 weeks after treatment
Summary of the method: as §1

[7] = test system: Amaranthus retroflexus; assay: Pre-emergence herbicidal action against AMARE; details: visual score after 3 weeks vs untreated controls
Summary of the method: (§2)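 Pre-emergence soil-surface spray of formulated compound (WP or EC; 600 to 800 l/ha; 0.2% wetting agent) over seeds sown in sandy loam. After 3 weeks under greenhouse conditions, damage is estimated visually in percent against untreated plants.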

[8] = test system: Veronica persica; assay: Pre-emergence herbicidal action against VERPE
Summary of the method: as §2

[9] = test system: Pharbitis purpurea; assay: Pre-emergence herbicidal action against PHBPU; details: visual score after 3 weeks vs untreated controls
Text: (§3) Seeds of monocotyledonous and dicotyledonous weed plants and crop plants are laid out in sandy loam soil in wood-fiber pots and covered with soil. The compounds of the invention, formulated in the form of wettable powders (WP) or as emulsion concentrates (EC), are then applied to the surface of the covering soil in the form of an aqueous suspension or emulsion at a water application rate equivalent to 600 to 800 l/ha, with addition of 0.2% wetting agent. After the treatment, the pots are placed in a greenhouse and kept under good growth conditions for the trial plants. The damage to the test plants is scored visually after a test period of 3 weeks by comparison with untreated controls (herbicidal activity in percent (%): 100% activity=the plants have died, 0% activity=like control plants). […] The tables below illustrate, in an illustrative manner, the post-emergence herbicidal action of the compounds of the invention, the herbicidal activity being stated in percent.

[10] = test system: Echinochloa crus-galli; assay: Pre-emergence herbicidal action against ECHCG; details: visual score after 3 weeks vs untreated controls
Summary of the method: as §2

[11] = test system: Polygonum convolvulus; assay: Post-emergence herbicidal action against POLCO; details: 20 g/ha, visual assessment about 3 weeks after treatment
Method: (§4) Seeds of monocotyledonous and dicotyledonous weed and crop plants are laid out in sandy loam soil in wood-fiber pots, covered with soil and cultivated in a greenhouse under good growth conditions. 2 to 3 weeks after sowing, the test plants are treated at the one-leaf stage. The compounds of the invention, formulated in the form of wettable powders (WP) or as emulsion concentrates (EC), are then sprayed onto the green parts of the plants in the form of an aqueous suspension or emulsion at a water application rate equivalent to 600 to 800 l/ha, with addition of 0.2% wetting agent. After the test plants have been left to stand in the greenhouse under optimal growth conditions for about 3 weeks, the action of the preparations is assessed visually in comparison to untreated controls (herbicidal action in percent (%): 100% activity=the plants have died, 0% activity=like control plants). […] The tables below illustrate, in an illustrative manner, the post-emergence herbicidal action of the compounds of the invention, the herbicidal activity being stated in percent.

[12] = test system: Matricaria inodora; assay: Pre-emergence herbicidal action against MATIN; details: visual score after 3 weeks vs untreated controls
Summary of the method: as §2

[13] = test system: Echinochloa crus-galli; assay: Post-emergence herbicidal action against ECHCG; details: visual assessment about 3 weeks after treatment
Summary of the method: as §1

[14] = test system: Setaria viridis; assay: Pre-emergence herbicidal action against SETVI
Summary of the method: as §2

[15] = test system: Abutilon theophrasti; assay: Pre-emergence herbicidal action against ABUTH; details: visual score after 3 weeks vs untreated controls
Summary of the method: as §2

[16] = test system: Viola tricolor; assay: Pre-emergence herbicidal action against VIOTR
Summary of the method: as §2

[17] = test system: Alopecurus myosuroides; assay: Pre-emergence herbicidal action against ALOMY; details: visual score after 3 weeks vs untreated controls
Summary of the method: as §2

[18] = test system: Digitaria sanguinalis; assay: Pre-emergence herbicidal action against DIGSA
Summary of the method: as §2

[19] = test system: Setaria viridis; assay: Post-emergence herbicidal action against SETVI; details: visual assessment about 3 weeks after treatment
Summary of the method: as §1

[20] = test system: Avena fatua; assay: Pre-emergence herbicidal action against AVEFA; details: visual score after 3 weeks vs untreated controls
Summary of the method: as §2

[21] = test system: Stellaria media; assay: Post-emergence herbicidal action against STEME; details: visual assessment about 3 weeks after treatment
Summary of the method: as §1

[22] = test system: Cyperus esculentus; assay: Pre-emergence herbicidal action against CYPES; details: visual score after 3 weeks vs untreated controls
Summary of the method: as §2

[23] = test system: Abutilon theophrasti; assay: Post-emergence herbicidal action against ABUTH
Summary of the method: as §1

[24] = test system: Stellaria media; assay: Pre-emergence herbicidal action against STEME
Summary of the method: as §2

[25] = test system: Pharbitis purpurea; assay: Post-emergence herbicidal action against PHBPU; details: visual assessment about 3 weeks after treatment
Summary of the method: as §1

[26] = test system: Hordeum murinum; assay: Pre-emergence herbicidal action against HORMU; details: visual score after 3 weeks vs untreated controls
Text: as §3

[27] = test system: Hordeum murinum; assay: Post-emergence herbicidal action against HORMU
Method: as §4

[28] = test system: Lolium rigidum; assay: Pre-emergence herbicidal action against LOLRI; details: 320 g/ha
Summary of the method: as §2

CCN(C(=O)c1c(C(F)(F)F)ccc(C(=O)Nc2nnnn2CC)c1C)C1CC1 [Example 2-32]
Post-emergence action against VIOTR in % ([1]; 5 g/ha): 80%
Post-emergence action against VIOTR in % ([1]; 20 g/ha): 90%
Post-emergence action against AMARE in % ([2]; 5 g/ha): 100%
Post-emergence action against AMARE in % ([2]; 20 g/ha): 100%
Post-emergence action against ALOMY ([3]; 5 g/ha): 80%
Post-emergence action against ALOMY ([3]; 20 g/ha): 100%
Post-emergence action against DIGSA in % ([4]; 5 g/ha): 90%
Post-emergence action against DIGSA in % ([4]; 20 g/ha): 90%
Post-emergence action against AVEFA in % ([5]; 20 g/ha): 80%
Post-emergence action against MATIN in % ([6]; 5 g/ha): 80%
Post-emergence action against MATIN in % ([6]; 20 g/ha): 90%
Pre-emergence action against AMARE ([7]; 20 g/ha): 100%
Pre-emergence action against AMARE ([7]; 80 g/ha): 100%
Pre-emergence action against VERPE ([8]; 20 g/ha): 90%
Pre-emergence action against VERPE ([8]; 80 g/ha): 90%
Pre-emergence action against PHBPU ([9]; 80 g/ha): 80%
Pre-emergence action against ECHCG ([10]; 80 g/ha): 90%
Post-emergence action against POLCO in % [11]: 80%
Pre-emergence action against MATIN ([12]; 20 g/ha): 80%
Pre-emergence action against MATIN ([12]; 80 g/ha): 100%
Post-emergence action against ECHCG in % ([13]; 5 g/ha): 90%
Post-emergence action against ECHCG in % ([13]; 20 g/ha): 90%
Pre-emergence action against SETVI ([14]; 80 g/ha): 100%
Pre-emergence action against ABUTH ([15]; 20 g/ha): 100%
Pre-emergence action against ABUTH ([15]; 80 g/ha): 100%
Pre-emergence action against VIOTR ([16]; 20 g/ha): 90%
Pre-emergence action against VIOTR ([16]; 80 g/ha): 100%
Pre-emergence action against ALOMY ([17]; 80 g/ha): 90%
Pre-emergence action against DIGSA ([18]; 20 g/ha): 100%
Pre-emergence action against DIGSA ([18]; 80 g/ha): 100%
Post-emergence action against SETVI in % ([19]; 20 g/ha): 90%

CCCn1nnnc1NC(=O)c1ccc(C(F)(F)F)c(C(=O)N(C)C)c1Cl [Example 3-123]
Pre-emergence action against AVEFA ([20]; 80 g/ha): 80%
Pre-emergence action against AVEFA ([20]; 320 g/ha): 100%
Post-emergence action against VIOTR in % ([1]; 5 g/ha): 90%
Post-emergence action against VIOTR in % ([1]; 20 g/ha): 100%
Post-emergence action against VIOTR in % ([1]; 80 g/ha): 100%
Post-emergence action against AMARE in % ([2]; 5 g/ha): 100%
Post-emergence action against AMARE in % ([2]; 20 g/ha): 100%
Post-emergence action against AMARE in % ([2]; 80 g/ha): 100%
Post-emergence action against ALOMY ([3]; 20 g/ha): 80%
Post-emergence action against ALOMY ([3]; 80 g/ha): 100%
Post-emergence action against AVEFA in % ([5]; 5 g/ha): 80%
Post-emergence action against AVEFA in % ([5]; 20 g/ha): 100%
Post-emergence action against AVEFA in % ([5]; 80 g/ha): 100%
Post-emergence action against MATIN in % ([6]; 5 g/ha): 90%
Post-emergence action against MATIN in % ([6]; 20 g/ha): 100%
Post-emergence action against MATIN in % ([6]; 80 g/ha): 100%
Post-emergence action against STEME in % ([21]; 5 g/ha): 90%
Post-emergence action against STEME in % ([21]; 20 g/ha): 100%
Post-emergence action against STEME in % ([21]; 80 g/ha): 100%
Pre-emergence action against AMARE ([7]; 20 g/ha): 100%
Pre-emergence action against AMARE ([7]; 80 g/ha): 100%
Pre-emergence action against AMARE ([7]; 320 g/ha): 100%
Pre-emergence action against CYPES ([22]; 80 g/ha): 80%
Pre-emergence action against CYPES ([22]; 320 g/ha): 90%
Pre-emergence action against VERPE ([8]; 320 g/ha): 90%
Post-emergence action against ABUTH ([23]; 5 g/ha): 100%
Post-emergence action against ABUTH ([23]; 20 g/ha): 100%
Post-emergence action against ABUTH ([23]; 80 g/ha): 100%
Pre-emergence action against PHBPU ([9]; 320 g/ha): 90%
Pre-emergence action against ECHCG ([10]; 80 g/ha): 80%
Pre-emergence action against ECHCG ([10]; 320 g/ha): 100%
Pre-emergence action against MATIN ([12]; 20 g/ha): 80%
Pre-emergence action against MATIN ([12]; 80 g/ha): 90%
Pre-emergence action against MATIN ([12]; 320 g/ha): 100%
Post-emergence action against ECHCG in % ([13]; 5 g/ha): 90%
Post-emergence action against ECHCG in % ([13]; 20 g/ha): 100%
Post-emergence action against ECHCG in % ([13]; 80 g/ha): 100%
Pre-emergence action against STEME ([24]; 20 g/ha): 90%
Pre-emergence action against STEME ([24]; 80 g/ha): 100%
Pre-emergence action against STEME ([24]; 320 g/ha): 100%
Post-emergence action against PHBPU in % ([25]; 5 g/ha): 80%
Post-emergence action against PHBPU in % ([25]; 20 g/ha): 90%
Post-emergence action against PHBPU in % ([25]; 80 g/ha): 90%
Pre-emergence action against SETVI ([14]; 80 g/ha): 100%
Pre-emergence action against SETVI ([14]; 320 g/ha): 100%
Pre-emergence action against HORMU ([26]; 80 g/ha): 80%
Pre-emergence action against HORMU ([26]; 320 g/ha): 100%
Pre-emergence action against ABUTH ([15]; 80 g/ha): 100%
Pre-emergence action against ABUTH ([15]; Dosage column 320 g/ha (heading prints 3200 g/ha)): 100%
Pre-emergence action against VIOTR ([16]; 80 g/ha): 80%
Pre-emergence action against VIOTR ([16]; 320 g/ha): 100%
Post-emergence action against HORMU in % ([27]; 20 g/ha): 90%
Post-emergence action against HORMU in % ([27]; 80 g/ha): 100%
Pre-emergence action against ALOMY ([17]; 80 g/ha): 80%
Pre-emergence action against ALOMY ([17]; 320 g/ha): 90%
Pre-emergence action against LOLRI [28]: 80%
Post-emergence action against SETVI in % ([19]; 5 g/ha): 100%
Post-emergence action against SETVI in % ([19]; 20 g/ha): 100%
Post-emergence action against SETVI in % ([19]; 80 g/ha): 100%
